Measurements from the NIST ThermoML archive (doi:10.1007/s10765-005-8590-7).

How the values were obtained:
[1] = Fluid (supercritical or subcritical phases), Constant-volume piezometry
[2] = xn = mol fraction of the nth substance listed; conditions: Fluid (supercritical or subcritical phases), Constant-volume piezometry, x2 = 0

O [water]
[1]
Conditions	mass density [kg/m3]
270.15 K, 4074.2 kPa	1001.55
271.17 K, 3818.6 kPa	1001.52
272.04 K, 5219 kPa	1002.3
272.13 K, 3596.6 kPa	1001.49
273.1 K, 3402.1 kPa	1001.46
273.15 K, 5009.6 kPa	1002.26
274.12 K, 13437 kPa	1006.52
274.15 K, 3220.1 kPa	1001.42
274.15 K, 4843.5 kPa	1002.23
275.15 K, 4716.5 kPa	1002.19
275.16 K, 3074.5 kPa	1001.39
275.18 K, 13355 kPa	1006.48
276.12 K, 4614.4 kPa	1002.16
276.16 K, 13306 kPa	1006.44
276.17 K, 2960.4 kPa	1001.35
276.18 K, 13305 kPa	1006.44
277.15 K, 2875.8 kPa	1001.32
277.15 K, 4535.3 kPa	1002.12
277.16 K, 13282 kPa	1006.4
278.13 K, 4490.8 kPa	1002.08
278.16 K, 2819.8 kPa	1001.27
278.16 K, 13288 kPa	1006.35
279.1 K, 4468.4 kPa	1002.03
279.16 K, 2790.3 kPa	1001.23
279.17 K, 13328 kPa	1006.3
280.1 K, 4469.1 kPa	1001.99
280.17 K, 13374 kPa	1006.26
281.08 K, 2807.6 kPa	1001.14
281.14 K, 4509 kPa	1001.94
281.17 K, 13456 kPa	1006.21
282.13 K, 13562 kPa	1006.16
283.15 K, 4649.5 kPa	1001.84
283.18 K, 13665 kPa	1006.11
285.14 K, 13994 kPa	1006.01
286.05 K, 5038.7 kPa	1001.69
288.15 K, 14714 kPa	1005.84
289.17 K, 5677.6 kPa	1001.51
292.12 K, 6505.6 kPa	1001.33
296.13 K, 7938.8 kPa	1001.06
300.13 K, 9714.8 kPa	1000.78
305.19 K, 12424 kPa	1000.41
308.16 K, 14234 kPa	1000.19

O [water] + N
[2]
Conditions	mass density [kg/m3]
270.15 K, 4074.2 kPa	1001.55
271.17 K, 3818.6 kPa	1001.52
272.04 K, 5219 kPa	1002.3
272.13 K, 3596.6 kPa	1001.49
273.1 K, 3402.1 kPa	1001.46
273.15 K, 5009.6 kPa	1002.26
274.12 K, 13437 kPa	1006.52
274.15 K, 3220.1 kPa	1001.42
274.15 K, 4843.5 kPa	1002.23
275.15 K, 4716.5 kPa	1002.19
275.16 K, 3074.5 kPa	1001.39
275.18 K, 13355 kPa	1006.48
276.12 K, 4614.4 kPa	1002.16
276.16 K, 13306 kPa	1006.44
276.17 K, 2960.4 kPa	1001.35
276.18 K, 13305 kPa	1006.44
277.15 K, 2875.8 kPa	1001.32
277.15 K, 4535.3 kPa	1002.12
277.16 K, 13282 kPa	1006.4
278.13 K, 4490.8 kPa	1002.08
278.16 K, 2819.8 kPa	1001.27
278.16 K, 13288 kPa	1006.35
279.1 K, 4468.4 kPa	1002.03
279.16 K, 2790.3 kPa	1001.23
279.17 K, 13328 kPa	1006.3
280.1 K, 4469.1 kPa	1001.99
280.17 K, 13374 kPa	1006.26
281.08 K, 2807.6 kPa	1001.14
281.14 K, 4509 kPa	1001.94
281.17 K, 13456 kPa	1006.21
282.13 K, 13562 kPa	1006.16
283.15 K, 4649.5 kPa	1001.84
283.18 K, 13665 kPa	1006.11
285.14 K, 13994 kPa	1006.01
286.05 K, 5038.7 kPa	1001.69
288.15 K, 14714 kPa	1005.84
289.17 K, 5677.6 kPa	1001.51
292.12 K, 6505.6 kPa	1001.33
296.13 K, 7938.8 kPa	1001.06
300.13 K, 9714.8 kPa	1000.78
305.19 K, 12424 kPa	1000.41
308.16 K, 14234 kPa	1000.19
